Where a chain is given by its changes, count along the chain named.

Assay [1] deals with T1, WT CXCR3 (Homo sapiens, UniProt P49682).
T1 construct: expressed in transfected cells; host or cells: murine pre-B cell line L1.2, transient transfection by electroporation
T1 sequence (P49682 1-368): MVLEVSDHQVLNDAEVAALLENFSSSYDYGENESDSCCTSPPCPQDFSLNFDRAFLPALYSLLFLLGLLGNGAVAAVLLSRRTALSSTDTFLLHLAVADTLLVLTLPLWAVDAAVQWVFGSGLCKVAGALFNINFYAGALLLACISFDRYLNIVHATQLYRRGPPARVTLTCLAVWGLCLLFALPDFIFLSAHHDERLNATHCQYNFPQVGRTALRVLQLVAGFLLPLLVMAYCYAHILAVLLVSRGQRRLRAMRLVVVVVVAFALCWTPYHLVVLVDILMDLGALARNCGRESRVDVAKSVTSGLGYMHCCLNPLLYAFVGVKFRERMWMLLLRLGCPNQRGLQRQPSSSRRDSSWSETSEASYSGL
Kind of assay: Chemotaxis assay, L1.2 transfectants migrating to CXCL11. It is filed as cell-based.

The target of assay [2] is T2, CXCR3 Y60A (Homo sapiens, UniProt P49682, Y60A).
T2 construct: expressed in transfected cells; host or cells: murine pre-B cell line L1.2, transient transfection
T2 sequence (P49682 1-368 Y60A): T1 sequence (P49682 1-368) with Y60A
The description is as above. It is filed as cell-based.

Assay [3] has as its target T3, CXCR3 F131A (Homo sapiens, UniProt P49682, F131A).
T3 construct: expressed in transfected cells; host or cells: murine pre-B cell line L1.2, transient transfection
T3 sequence (P49682 1-368 F131A): T1 sequence (P49682 1-368) with F131A
Described as above. It is filed as cell-based.

The target of assay [4] is T4, CXCR3 H202A (ECL2) (Homo sapiens, UniProt P49682, H202A).
T4 construct: expressed in transfected cells; host or cells: murine pre-B cell line L1.2, transient transfection
T4 sequence (P49682 1-368 H202A): T1 sequence (P49682 1-368) with H202A
The description is as above. The format is cell-based.

The target in assay [5] is T5, CXCR3 I279A (Homo sapiens, UniProt P49682, I279A).
T5 construct: expressed in transfected cells; host or cells: murine pre-B cell line L1.2, transient transfection
T5 sequence (P49682 1-368 I279A): T1 sequence (P49682 1-368) with I279A
The assay is described as above. It is filed as cell-based.

For assay [6], the target named is T6, D112N-CXCR3 (Homo sapiens, UniProt P49682, D112N).
T6 construct: expressed in transfected cells; host or cells: murine pre-B cell line L1.2, transient transfection
T6 sequence (P49682 1-368 D112N): T1 sequence (P49682 1-368) with D112N
The description is as above. It is filed as cell-based. To be noted: 10 nM CXCL11, read-out: IC50 for inhibition of migration.

Assay [7] concerns the target T6, D112N-CXCR3. Briefly: Whole-cell 125I-CXCL11 binding assay, L1.2 transfectants. To be noted: D112N-CXCR3 transfectants (Figure 1); read-out: IC50 for displacement of 125I-CXCL11. On the technique in general: Loss of bound radioactivity is the signal in a displacement assay; it reports binding, not function.
The target of assay [8] is T3, CXCR3 F131A. Described as above. The conditions noted are these: 0.1 nM 125I-CXCL11, read-out: IC50 ligand binding (mean ± SEM).
Assay [9] has as its target T4, CXCR3 H202A (ECL2). Described as above. To be noted: 0.1 nM 125I-CXCL11, read-out: IC50 ligand binding (mean ± SEM).
[10] abbreviates: 30 nM CXCL11, read-out: IC50 chemotaxis (mean ± SEM).

On to “CXCL11: recombinant human chemokine, CXCR3 agonist, purchased from PeproTech”, for which, in [1] (WT CXCR3), the “optimum concentration of bell-shaped chemotaxis response” value is 30 nM. The “% of WT chemotaxis to 30 nM CXCL11 (mean ± SEM)” value in [1] (WT CXCR3, 30 nM CXCL11) turned out to be 100 ± 4.32%; in assay [2], 55.4 ± 16.4%; in [3], 53.7 ± 5.6%; in [4] (H202A), 66.0 ± 34.8%; in [5] it was 51.3 ± 6.2%.

In the case of `Cc1ccc(-c2ccc3c(c2)C=C(C(=O)Nc2ccc(C[N+](C)(C)C4CCOCC4)cc2)CCC3)cc1.[Cl-]` [TAK-779, N,N-dimethyl-N-[4-[[[2-(4-methylphenyl)-6,7-dihydro-5H-benzocyclohepten-8-yl]-carbonyl]amino]benzyl] tetrahydro-2H-pyran-4-aminium chloride], the IC50 in [1] (WT CXCR3, 30 nM CXCL11, read-out: IC50 chemotaxis (mean ± SEM)) turned out to be 15.8 ± 3.1 µM; in [6] it was 1.34 µM; in [2] (setting [10]) it was 10.2 ± 4.62 µM; in assay [3] (setting [10]), 15 ± 6.98 µM; in assay [4] (H202A (ECL2), 30 nM CXCL11, read-out: IC50 chemotaxis (mean ± SEM)) it was 32.7 ± 14 µM; in assay [5] (setting [10]), 10.5 ± 3.35 µM. For the same compound, the results for the IC50 in [7], in [8] and in assay [9] were 17.2 µM, 23.3 ± 6.57 µM and 25.3 ± 10.2 µM, respectively. Also, the “increase in IC50 value, chemotaxis” value in [4] (H202A versus WT, 30 nM CXCL11) was “twofold”.

The values above are taken from paper PMC4376459, “CXCR3 antagonist VUF10085 binds to an intrahelical site distinct from that of the broad spectrum antagonist TAK-779” (British Journal of Pharmacology, 2015).
